Reference: US11376307B2, “Compositions and methods of treating cancer with glycomimetic peptides” (SUSAVION BIOSCIENCES, INC., priority 2018, dated 2022)
Positions of bridges follow the written chain, without caps; N, C: chain ends. Chains are numbered I, II in the order given.

Assays:
[1] = test system: ID8 ovarian cancer cell line; test: Murine model of ovarian cancer, sv6D and paclitaxel
Description: Combination study of sv6D and paclitaxel. (FIG. 8A) Female C57BL/6 mice were implanted with ID8 ovarian cancer cell line. […] Body weights of mice are shown as measured on day 58, after two weeks of alternate-day subcutaneous treatment with sv6D (0.1 nmol/g) or 3 intraperitoneal doses (days 45, 47 and 49) of 18 μg/g paclitaxel in cremophor. […] (FIG. 8B) Alternate-day injections of sv6D were initiated on day 50 with peptide alone or on day 100 to mice that were previously treated with paclitaxel between day 45 and 49. […] (FIG. 8C) Kaplan-Meier survival curves for mice treated with paclitaxel, sv6D or a combination of the two in which alternate-day subcutaneous injections of sv6D was started 50 days after paclitaxel treatment.
Cells of an ovarian epithelial cancer line, ID8 [110], were implanted into the peritoneal cavity of female C57BL/6 mice at a dose of 6×10^6 cells. All animals were weighed at least weekly throughout these studies. Accumulation of ascites was monitored by increase in body weight, and animals were euthanized when end-stage behavior was expressed. […] Kaplan-Meier survival curves were analyzed by the Mantel-Cox log-rank test.
A murine ovarian cancer cell line (ID8) was implanted into the peritoneal cavity of C57BL/6 female mice on day 0. […] Progression of the cancer was monitored by body weight of animals as an indication of ascites accumulation.

CD4 and CD8 T cells = test: In vitro challenge of T cells from mice injected with sv6D-MOG; type: cell-based, C57BL/6 mice; details: mice injected weekly x2 with 0.1 nmol/g; 72 h incubation
Description: FIGS. 11A-11B. Activation of T cells by sv6D-antigen conjugate. IFN-γ (FIG. 11A) and IL-2 (FIG. 11B) production upon in vitro challenge of T cells after weekly injections of sv6D or sv6D-MOG (MOG=myelin oligodendrocyte glycoprotein35-55) into C57BL/6 mice. One week after the second injection, spleen and right inguinal lymph node tissue were combined and homogenized to allow isolation of CD4 and CD8 T cells, which were mixed with non-T cell antigen presenting cells, and incubated 72 h with PBS, sv6D or sv6D-MOG. PMA (phorbol 12-myristate 13-acetate) and I (ionomycin) were added as positive controls. Activation of CD8^+ T cells indicated cross-presentation of the antigen to the cytosol of dendritic cells, mediated by sv6D.
Whereas sv6D is not antigenic in the mouse (FIG. 10), it is important to determine whether the peptide gains access to the cytosol of DCs. To test whether sv6D could initiate a TH1 response and activate CD8^+ T cells, a fragment of the myelin oligodendrocyte glycoprotein (MOG35-55) was attached to the C-terminus of sv6D and injected into mice. One week after a second weekly injection of 0.1 nmol/g peptide, CD4^+ and CD8^+ T cells were challenged in vitro with the conjugate. […] A high level of IL-2 was also released by CD4^+ T cells (FIG. 11B). These observations are typical of a strong response to vaccination and stimulation of clonal T cell proliferation. […]

[2] = test system: human monocyte-derived DCs co-cultured with CD3+ T cells; test: Allogenic mixed leukocyte reaction, IFN-γ release; type: cell-based
Description: FIGS. 5A-5B. Mixed leukocyte reaction. An allogenic mixture of 5×10^3 human monocyte-derived immature dendritic cells and 1×10^5 negatively selected CD3^+ T cells were incubated with various concentrations of sv6D. (FIG. 5A) Effect of concentration of sv6D in the medium on release of IFN-γ after 5 days of culture. […] (FIG. 5B) The time course of the appearance of IFN-γ in the medium of cultures incubated with 10 nM sv6D in (FIG. 5A) as compared with control incubations with PBS.
Binding of a peptide to CLEC10A expressed by DCs is expected to stimulate maturation and potential activation of T cells. This hypothesis was tested by an experiment in which human monocyte-derived DCs were co-cultured with T cells. Expression of CLEC10A (CD301) by the DCs was established by flow cytometry. sv6D was added to the medium at various concentrations, and IFN-γ production by T cells was assayed. […] Significant release of IFN-γ occurred after 3 days of incubation (FIG. 5B), a time required for DC maturation.

[3] = test system: 4T1 breast cancer-bearing mice; details: 0.1 nmol/g svL4 s.c., 4 h
Description: When tumors reached a volume of at least 500 mm^3, animals were randomized into groups of 3 and dosed with either 0.1 or 1.0 nmol/g of svL4. At 4 h post dose, terminal blood was collected from 3 animals per group and prepared for serum. Sera were also collected from healthy Balb/c mice by the same procedure. Changes in the levels of cytokines/chemokines in sera from breast cancer-bearing and healthy mice were analyzed with the mouse L-308 membrane array by RayBiotech, Inc. (Norcross, Ga.) (Table 2).
Markers of lymphocyte and monocyte activation in response to 0.1 nmol/g svL4 in Balb/c mice bearing breast tumors are compared with healthy mice. Sera from three animals were pooled for analysis with an array of 308 soluble factors.
After the tumors had grown over a period of 10 to 12 days to a size of −500 mm^3, svL4 was injected subcutaneously at doses of 0.1 or 1.0 nmol/g. Sera were prepared 4 h after injection and analyzed with an array of 308 cytokines/chemokines.

[4] = Serum cytokine array (L-308) in healthy mice; type: in vivo, Balb/c mice; details: svL4 s.c., 4 h, separate experiment
Description: Ratios of treated vs. untreated samples obtained in a separate experiment with healthy Balb/c mice are shown in the right-hand column of Table 2 for comparison. The most significant increase in the serum of healthy mice treated with the peptide was in the amount of soluble HVEM (Herpes virus entry mediator, also designated TNFRSF14), which was a prominent protein in serum and increased approximately 10-fold within 4 h after treatment. In the tumor-bearing mice, the level of soluble HVEM in treated animals was similar to that in treated healthy mice, but the level in untreated animals was higher than that in healthy control mice.

[5] = High = control value negligible or low

Substance: I: H-NQHTPRGGGSKK-NH2 / II: H-NQHTPRGGGSK / III: H-NQHTPRGGGS / IV: H-NQHTPRGGGS (amide I:11-IV:C, I:12-II:C, II:11-III:C) [sv6D]
- Median survival ([1]; paclitaxel days 45-49 followed by sv6D from day 100): 169 days
- Overall survival time ([1]; paclitaxel followed by sv6D): doubled
- Median survival ([1]; single agent, sv6D 0.1 nmol/g, control median end-stage day 122): approximately 141 days
- Weight gain at day 120 ([1]; sv6D alone initiated at day 45): no significant weight gain for half the animals
- Further increase in body weight over 3 weeks ([1]; sv6D alternate days from day 100, 50 days after paclitaxel): completely suppressed further increases in weight
- Body weight (ascites accumulation) after two weeks of treatment ([1]; treatment from day 45, sv6D 0.1 nmol/g s.c. alternate days, paclitaxel 18 μg/g i.p. x3): had not significantly increased
- IFN-γ release by CD4+ and CD8+ T cells on in vitro challenge (CD4 and CD8 T cells): did not induce IFN-γ release
- Incubation time after which significant release of IFN-γ occurred ([2]; 10 nM sv6D): 3 days
- Concentration giving maximal IFN-γ production / optimal cellular response ([2]; 5 days of culture): 10 nM

Substance: I: H-VQATQSNQHTPRGGGSKK-NH2 / II: H-VQATQSNQHTPRGGGSK / III: H-VQATQSNQHTPRGGGS / IV: H-VQATQSNQHTPRGGGS (amide I:17-IV:C, I:18-II:C, II:17-III:C) [svL4]
- Ratio of level of IFN-γ in sera (treated vs. untreated) [3, 5]: High
- Ratio of level of IL-17 in sera (treated vs. untreated) [3, 5]: High
- Ratio of level of IL-21 in sera (treated vs. untreated) [3, 5]: High
- Ratio of level of IL-23 in sera (treated vs. untreated) [3, 5]: High
- Ratio of level of IL-1α in sera (treated vs. untreated) ([3]; pooled sera of 3): 3
- Ratio of level of IL-2 in sera (treated vs. untreated) ([3]; pooled sera of 3): 56
- Ratio of level of IL-12p70 in sera (treated vs. untreated) ([3]; pooled sera of 3): 3
- Ratio of level of IL-27 in sera (treated vs. untreated) ([3]; pooled sera of 3): 4.5
- Ratio of level of IL-28 in sera (treated vs. untreated) ([3]; pooled sera of 3): 4.3
- Ratio of level of IL-31 in sera (treated vs. untreated) ([3]; pooled sera of 3): 3.5
- Ratio of level of Lymphotoxin-α in sera (treated vs. untreated) ([3]; pooled sera of 3): 12.5
- Ratio of level of TNFα in sera (treated vs. untreated) ([3]; pooled sera of 3): 45
- Ratio of level of sHVEM in sera (treated vs. untreated) ([3]; pooled sera of 3): 2
- Ratio of level of IFN-γ in sera (treated vs. untreated) [4]: no change
- Ratio of level of IL-1α in sera (treated vs. untreated) [4]: 0.86
- Ratio of level of IL-2 in sera (treated vs. untreated) [4]: no change
- Ratio of level of IL-12p70 in sera (treated vs. untreated) [4]: no change
- Ratio of level of IL-17 in sera (treated vs. untreated) [4]: no change
- Ratio of level of IL-21 in sera (treated vs. untreated) [4]: no change
- Ratio of level of IL-23 in sera (treated vs. untreated) [4]: no change
- Ratio of level of IL-27 in sera (treated vs. untreated) [4]: 0.55
- Ratio of level of IL-28 in sera (treated vs. untreated) [4]: no change
- Ratio of level of IL-31 in sera (treated vs. untreated) [4]: no change
- Ratio of level of Lymphotoxin-α in sera (treated vs. untreated) [4]: 0.74
- Ratio of level of TNFα in sera (treated vs. untreated) [4]: 0.21
